Data reported in patent US20120142646A1, “Novel Compounds 621” (priority 2006, published 2012).
Counter-ions that a name gives are not always drawn.

Target: T1, Adrenergic β2 (Homo sapiens, UniProt P07550)
T1 construct: Adherent H292 cells were removed from tissue culture flasks; endogenous in cells; host or cells: H292 cells
Assay: Adrenergic β2 mediated cAMP production in H292 cells (AlphaScreen cAMP detection)
Assay type: cell-based
Set-up: key to β2 Int Act: fraction of formoterol maximum activity (formoterol = 1)
Settings: Intrinsic Activity as a fraction relative to the maximum activity determined for formoterol
Protocol: Adrenergic β2 Mediated cAMP Production
H292 cells were grown in 225 cm2 flasks incubator at 37° C., 5% CO2 in RPMI medium containing, 10% (v/v) FBS (foetal bovine serum) and 2 mM L-glutamine.
Adherent H292 cells were removed from tissue culture flasks by treatment with Accutase™ cell detachment solution for 15 minutes. Flasks were incubated for 15 minutes in a humidified incubator at 37° C., 5% CO2. Detached cells were re-suspended in RPMI media (containing 10% (v/v) FBS and 2 mM L-glutamine) at 1×10^6 cells per mL. 10000 cells in 100 μL were added to each well of a tissue-culture-treated 96-well plate and the cells incubated overnight in a humidified incubator at 37° C., 5% CO2. The culture media was removed and cells were washed twice with 100 μL assay buffer and replaced with 50 μL assay buffer (HBSS solution containing 10 mM HEPES pH7.4 and 5 mM glucose). Cells were rested at room temperature for 20 minutes after which time 25 μL of rolipram (1.2 mM made up in assay buffer containing 2.4% (v/v) dimethylsulphoxide) was added. Cells were incubated with rolipram for 10 minutes after which time test compounds were added and the cells were incubated for 60 minutes at room temperature. The final rolipram concentration in the assay was 300 μM and final vehicle concentration was 1.6% (v/v) dimethylsulphoxide. The reaction was stopped by removing supernatants, washing once with 100 μL assay buffer and replacing with 50 μL lysis buffer. The cell monolayer was frozen at −80° C. for 30 minutes (or overnight).
AlphaScreen™ cAMP Detection
The concentration of cAMP (cyclic adenosine monophosphate) in the cell lysate was determined using AlphaScreen™ methodology. The frozen cell plate was thawed for 20 minutes on a plate shaker then 10 μL of the cell lysate was transferred to a 96-well white plate. 40 μL of mixed AlphaScreen™ detection beads pre-incubated with biotinylated cAMP, was added to each well and the plate incubated at room temperature for 10 hours in the dark. The AlphaScreen™ signal was measured using an EnVision spectrophotometer (Perkin-Elmer Inc.) with the recommended manufacturer's settings. cAMP concentrations were determined by reference to a calibration curve determined in the same experiment using standard cAMP concentrations. Concentration response curves for agonists were constructed and data was fitted to a four parameter logistic equation to determine both the pEC50 and Intrinsic Activity. Intrinsic Activity was expressed as a fraction relative to the maximum activity determined for formoterol in each experiment.

T1 sequence (P07550 whole entry): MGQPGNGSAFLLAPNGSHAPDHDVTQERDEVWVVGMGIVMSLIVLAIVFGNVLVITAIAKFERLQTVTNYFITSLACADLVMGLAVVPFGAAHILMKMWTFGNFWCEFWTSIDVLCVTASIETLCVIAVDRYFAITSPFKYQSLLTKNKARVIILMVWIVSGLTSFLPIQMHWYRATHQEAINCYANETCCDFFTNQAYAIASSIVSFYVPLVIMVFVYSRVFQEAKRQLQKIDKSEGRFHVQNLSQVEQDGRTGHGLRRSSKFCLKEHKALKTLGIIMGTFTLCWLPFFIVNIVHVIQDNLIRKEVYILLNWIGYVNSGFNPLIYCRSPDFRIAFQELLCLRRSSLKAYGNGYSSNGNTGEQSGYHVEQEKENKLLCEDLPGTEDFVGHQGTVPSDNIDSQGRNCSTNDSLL

Row | SMILES | β2 Int Act
1 | O=C1COc2c(CCNCCN(C(=O)CCNCCc3cc(F)ccc3F)C3CCCCCC3)ccc(O)c2N1 [Example 64, N-Cycloheptyl-3-(2,5-difluorophenethylamino)-N-(2-(2-(5-hydroxy-3-oxo-3,4-dihydro-2H-benzo[b][1,4]oxazin-8-yl)ethylamino)ethyl)propanamide bis(trifluoroacetate)] | 0.88
2 | CC[C@@H](C)N(CCNCCc1ccc(O)c2[nH]c(=O)ccc12)C(=O)CCOCCc1ccccc1.Cl [Example 79, (R)—N-sec-Butyl-N-(2-(2-(8-hydroxy-2-oxo-1,2-dihydroquinolin-5-yl)ethylamino)ethyl)-3-phenethoxypropanamide hydrochloride] | 0.92
3 | O=C1COc2c(CCNCCN(C(=O)CCNCCc3cc(F)cc(F)c3)C3CCCCCC3)ccc(O)c2N1 [Example 65, N-Cycloheptyl-3-(3,5-difluorophenethylamino)-N-(2-(2-(5-hydroxy-3-oxo-3,4-dihydro-2H-benzo[b][1,4]oxazin-8-yl)ethylamino)ethyl)propanamide bis(trifluoroacetate)] | 0.93
4 | O=C1COc2c(CCNCCN(C(=O)CCNCCc3ccc(Cl)c(Cl)c3)C3CCCCC3)ccc(O)c2N1 [Example 30, N-Cyclohexyl-3-(3,4-dichlorophenethylamino)-N-(2-(2-(5-hydroxy-3-oxo-3,4-dihydro-2H-benzo[b][1,4]oxazin-8-yl)ethylamino)ethyl)propanamide bis(trifluoroacetate)] | 0.92
5 | O=C1COc2c(CCNCCN(C(=O)CCOCCc3cccc(Cl)c3)C3CCCCC3)ccc(O)c2N1 [Example 77, 3-(3-Chlorophenethoxy)-N-cyclohexyl-N-(2-(2-(5-hydroxy-3-oxo-3,4-dihydro-2H-benzo[b][1,4]oxazin-8-yl)ethylamino)ethyl)propanamide trifluoroacetate] | 0.97
6 | O=CNc1cc(CCNCCN(C(=O)CCNCCc2ccccc2)C2CCCCC2)ccc1O [Example 21, N-Cyclohexyl-N-(2-(3-formamido-4-hydroxyphenethylamino)ethyl)-3-(phenethylamino)propanamide] | 0.83
7 | CCCCN(CCNCCc1ccc(O)c2[nH]c(=O)ccc12)C(=O)CCOCCc1ccccc1 [Example 1, N-Butyl-N-(2-(2-(8-hydroxy-2-oxo-1,2-dihydroquinolin-5-yl)ethylamino)ethyl)-3-phenethoxypropanamide hydrochloride] | 0.9
8 | O=C(CCNCCc1ccc(F)c(F)c1)N(CCNCCc1ccc(O)c2[nH]c(=O)ccc12)C1CCCCC1 [Example 16, N-Cyclohexyl-3-(3,4-difluorophenethylamino)-N-(2-(2-(8-hydroxy-2-oxo-1,2-dihydroquinolin-5-yl)ethylamino)ethyl)propanamide bis(trifluoroacetate)] | 0.85
9 | O=C(CCNCCc1cccc(Cl)c1)N(CCNCCc1ccc(O)c2[nH]c(=O)ccc12)C1CCCCCC1 [Example 3, 3-(3-Chlorophenethylamino)-N-cycloheptyl-N-(2-(2-(8-hydroxy-2-oxo-1,2-dihydroquinolin-5-yl)ethylamino)ethyl)propanamide bis(trifluoroacetate)] | 0.82
10 | O=C1COc2c(CCNCCN(C(=O)CCNCCc3cc(Cl)ccc3F)C3CCCCC3)ccc(O)c2N1 [Example 34, 3-(5-Chloro-2-fluorophenethylamino)-N-cyclohexyl-N-(2-(2-(5-hydroxy-3-oxo-3,4-dihydro-2H-benzo[b][1,4]oxazin-8-yl)ethylamino)ethyl)propanamide bis(trifluoroacetate)] | 0.9
11 | O=C(CCOCCc1ccccc1)N(CCNCCc1ccc(O)c2[nH]c(=O)ccc12)C1CCCCC1 [Example 2, N-Cyclohexyl-N-(2-(2-(8-hydroxy-2-oxo-1,2-dihydroquinolin-5-yl)ethylamino)ethyl)-3-phenethoxypropanamide] | 0.93
12 | O=C(CCNCCc1cccc(F)c1)N(CCNCCc1ccc(O)c2[nH]c(=O)ccc12)C1CCCCCC1 [Example 5, N-Cycloheptyl-3-(3-fluorophenethylamino)-N-(2-(2-(8-hydroxy-2-oxo-1,2-dihydroquinolin-5-yl)ethylamino)ethyl)propanamide bis(trifluoroacetate)] | 0.82

Results, then the compound that gave them:

Row | β2 Int Act | SMILES
13 | 0.67 | O=C(CCNCCc1cccc(-c2ccccc2)c1)N(CCNCCc1ccc(O)c2[nH]c(=O)ccc12)C1CCCCCC1 [Example 12, 3-(2-(Biphenyl-3-yl)ethylamino)-N-cycloheptyl-N-(2-(2-(8-hydroxy-2-oxo-1,2-dihydroquinolin-5-yl)ethylamino)ethyl)propanamide bis(trifluoroacetate)]
14 | 0.94 | CCCC[C@@H](C)N(CCNCCc1ccc(O)c2c1OCC(=O)N2)C(=O)CCNCCc1cc(F)cc(F)c1 [Example 51, (R)-3-(3,5-Difluorophenethylamino)-N-(hexan-2-yl)-N-(2-(2-(5-hydroxy-3-oxo-3,4-dihydro-2H-benzo[b][1,4]oxazin-8-yl)ethylamino)ethyl)propanamide bis(trifluoroacetate)]
15 | 0.87 | O=C1COc2c(CCNCCN(C(=O)CCNCCc3cc(F)cc(F)c3)C3CCCCC3)ccc(O)c2N1 [Example 35, N-Cyclohexyl-3-(3,5-difluorophenethylamino)-N-(2-(2-(5-hydroxy-3-oxo-3,4-dihydro-2H-benzo[b][1,4]oxazin-8-yl)ethylamino)ethyl)propanamide bis(trifluoroacetate)]
16 | 0.85 | O=C(CCNCCc1cc(F)cc(F)c1)N(CCNCCc1ccc(O)c2[nH]c(=O)ccc12)C1CCCCCC1 [Example 10, N-Cycloheptyl-3-(3,5-difluorophenethylamino)-N-(2-(2-(8-hydroxy-2-oxo-1,2-dihydroquinolin-5-yl)ethylamino)ethyl)propanamide bis(trifluoroacetate)]
17 | 0.65 | CCOc1cccc(CCNCCC(=O)N(CCNCCc2ccc(O)c3[nH]c(=O)ccc23)C2CCCCCC2)c1 [Example 11, N-Cycloheptyl-3-(3-ethoxyphenethylamino)-N-(2-(2-(8-hydroxy-2-oxo-1,2-dihydroquinolin-5-yl)ethylamino)ethyl)propanamide bis(trifluoroacetate)]
18 | 0.93 | O=C(CCNCCc1cc(F)ccc1F)N(CCNCCc1ccc(O)c2[nH]c(=O)ccc12)C1CCCCC1 [Example 17, N-Cyclohexyl-3-(2,5-difluorophenethylamino)-N-(2-(2-(8-hydroxy-2-oxo-1,2-dihydroquinolin-5-yl)ethylamino)ethyl)propanamide bis(trifluoroacetate)]
19 | 0.88 | O=C(CCNCCc1ccc(Cl)cc1)N(CCNCCc1ccc(O)c2[nH]c(=O)ccc12)C1CCCCC1 [Example 14, 3-(4-Chlorophenethylamino)-N-cyclohexyl-N-(2-(2-(8-hydroxy-2-oxo-1,2-dihydroquinolin-5-yl)ethylamino)ethyl)propanamide bis(trifluoroacetate)]
20 | 0.9 | O=C1COc2c(CCNCCN(C(=O)CCNCCc3ccc(F)c(F)c3)C3CCCCC3)ccc(O)c2N1 [Example 42, N-Cyclohexyl-3-(3,4-difluorophenethylamino)-N-(2-(2-(5-hydroxy-3-oxo-3,4-dihydro-2H-benzo[b][1,4]oxazin-8-yl)ethylamino)ethyl)propanamide bis(trifluoroacetate)]
21 | 0.79 | Cc1cccc(CCNCCC(=O)N(CCNCCc2ccc(O)c3[nH]c(=O)ccc23)C2CCCCCC2)c1 [Example 8, N-Cycloheptyl-N-(2-(2-(8-hydroxy-2-oxo-1,2-dihydroquinolin-5-yl)ethylamino)ethyl)-3-(3-methylphenethylamino)propanamide bis(trifluoroacetate)]
22 | 0.86 | O=C(CCNCCc1cccc(Cl)c1)N(CCNCCc1ccc(O)c2[nH]c(=O)ccc12)C1CCCCC1 [Example 13, 3-(3-Chlorophenethylamino)-N-cyclohexyl-N-(2-(2-(8-hydroxy-2-oxo-1,2-dihydroquinolin-5-yl)ethylamino)ethyl)propanamide bis(trifluoroacetate)]
23 | 0.9 | CCCC[C@@H](C)N(CCNCCc1ccc(O)c2c1OCC(=O)N2)C(=O)CCNCCc1ccccc1 [Example 25, (R)—N-(Hexan-2-yl)-N-(2-(2-(5-hydroxy-3-oxo-3,4-dihydro-2H-benzo[b][1,4]oxazin-8-yl)ethylamino)ethyl)-3-(phenethylamino)propanamide bis(trifluoroacetate)]
